Measured values: patent publication US20260116920A1, “HUMAN TRANSFERRIN RECEPTOR BINDING PEPTIDE” (PEPTIDREAM INC., priority 2021, published 2026)
Positions of bridges follow the written chain, without caps; N, C: chain ends. Non-standard residues stand in square brackets, D forms with d. Residues, ends and D or L forms follow the SMILES beside them. *: point of attachment. Phe(3-COOH) = N[C@@H](Cc1cccc(C(=O)O)c1)C(=O)O; NH(CH2CH2O)8Me = COCCOCCOCCOCCOCCOCCOCCOCCN*; NMePhe(3-Cl) = CN[C@@H](Cc1cccc(Cl)c1)C(=O)O; 3Pal(6-NH2) = Nc1ccc(C[C@H](N)C(=O)O)cn1; NMeY = CN[C@@H](Cc1ccc(O)cc1)C(=O)O; 3Pal = N[C@@H](Cc1cccnc1)C(=O)O; 4Pal = N[C@@H](Cc1ccncc1)C(=O)O; PEG4 = NCCOCCOCCOCCOCCC(=O)O; Carboxymethyl = O=C(O)C*

The compounds below were run against T1, human transferrin receptor (hTfR) (Homo sapiens, UniProt P02786) (assay: Evaluation of molecular interaction between transferrin receptor (hTfR) and peptide using surface plasmon resonance (SPR)). Conditions: surface plasmon resonance, binding to hTfR; KD class symbol; read-out: SPR (KD value).
T1 construct: made in house
Type: binding
How it was run: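 Recombinant human TfR dimer (0.5 μM) was captured on a Ni-charged NTA chip and amine-coupled with EDC/NHS, then ethanolamine-capped. Peptides at 5–100 nM in HEPES pH 8.0 buffer with 150 mM NaCl, 0.05% Tween 20, 0.1% BSA and 1.0% DMSO were run by single-cycle kinetics; KD came from least-squares curve fitting.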

T1 sequence (P02786 89-760 limits assumed): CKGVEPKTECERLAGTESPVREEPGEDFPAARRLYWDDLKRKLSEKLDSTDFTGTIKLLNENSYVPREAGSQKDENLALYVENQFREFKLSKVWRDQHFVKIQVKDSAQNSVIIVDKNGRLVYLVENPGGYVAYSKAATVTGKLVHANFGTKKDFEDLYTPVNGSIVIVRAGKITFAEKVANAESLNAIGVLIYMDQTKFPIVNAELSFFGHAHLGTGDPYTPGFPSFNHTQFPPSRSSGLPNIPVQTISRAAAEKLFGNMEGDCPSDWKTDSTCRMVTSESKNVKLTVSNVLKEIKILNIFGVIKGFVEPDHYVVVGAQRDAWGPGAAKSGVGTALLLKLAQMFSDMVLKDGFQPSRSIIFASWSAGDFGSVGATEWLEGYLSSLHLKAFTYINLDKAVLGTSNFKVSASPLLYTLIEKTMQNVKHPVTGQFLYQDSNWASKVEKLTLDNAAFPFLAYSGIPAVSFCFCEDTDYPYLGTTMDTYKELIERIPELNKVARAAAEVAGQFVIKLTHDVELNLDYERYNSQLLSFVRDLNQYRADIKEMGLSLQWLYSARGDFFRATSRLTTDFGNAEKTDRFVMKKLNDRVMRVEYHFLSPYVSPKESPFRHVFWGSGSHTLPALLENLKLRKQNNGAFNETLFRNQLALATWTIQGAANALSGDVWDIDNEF

SMILES | Kd
CC[C@H](C)[C@@H]1NC(=O)[C@H](Cc2ccc(OCC(=O)O)cc2)NC(=O)[C@H](Cc2ccc(O)cc2)NC(=O)[C@H](CC(N)=O)NC(=O)[C@H](Cc2c[nH]c3ccccc23)NC(=O)[C@H](C(C)C)NC(=O)[C@H](Cc2cccc(Cl)c2)N(C)C(=O)[C@H](C(C)C)NC(=O)[C@H](C)NC(=O)CSC[C@@H](C(=O)NCCOCCOCCOCCOCCC(N)=O)NC(=O)[C@H](Cc2ccc(O)cc2)N(C)C(=O)[C@H](Cc2ccccc2)NC(=O)[C@H](CCC(=O)NCCOCCOCCOCCOCCOCCOCCOCCOC)NC(=O)[C@H](CCCNC(=N)N)NC(=O)[C@H]([C@@H](C)CC)NC1=O [compound 89] | 1 to 100 nM
CC[C@H](C)[C@@H]1NC(=O)[C@H](Cc2ccc(OC)cc2)NC(=O)[C@H](Cc2ccc(O)cc2)NC(=O)[C@H](CC(N)=O)NC(=O)[C@H](Cc2c[nH]c3ccccc23)NC(=O)[C@H](C(C)C)NC(=O)[C@H](Cc2cccc(Cl)c2)N(C)C(=O)[C@H](C(C)C)NC(=O)[C@H](C)NC(=O)CSC[C@@H](C(=O)NCCOCCOCCOCCOCCC(N)=O)NC(=O)[C@H](Cc2ccc(O)cc2)N(C)C(=O)[C@H](Cc2cccc(C(=O)O)c2)NC(=O)[C@H](CCC(=O)NCCOCCOCCOCCOCCOCCOCCOCCOC)NC(=O)[C@H](CCCNC(=N)N)NC(=O)[C@H]([C@@H](C)CC)NC1=O [compound 90] ({CH2CO}-AV[NMePhe(3-Cl)]VWNYY(Me)IIRE(NH(CH2CH2O)8Me)[Phe(3-COOH)][NMeY]C[PEG4]-NH2; thioether N-15) | 1 to 100 nM
CC[C@H](C)[C@@H]1NC(=O)[C@H](Cc2ccc(OCC(=O)O)cc2)NC(=O)[C@H](Cc2ccc(N)nc2)NC(=O)[C@H](CC(N)=O)NC(=O)[C@H](Cc2c[nH]c3ccccc23)NC(=O)[C@H](C(C)C)NC(=O)[C@H](Cc2cccc(Cl)c2)N(C)C(=O)[C@H](C(C)C)NC(=O)[C@H](C)NC(=O)CSC[C@@H](C(=O)NCCOCCOCCOCCOCCC(N)=O)NC(=O)[C@H](Cc2ccc(O)cc2)N(C)C(=O)[C@H](Cc2ccncc2)NC(=O)[C@H](CCCNC(=N)N)NC(=O)[C@H](CCCNC(=N)N)NC(=O)[C@H]([C@@H](C)CC)NC1=O [compound 92] | 1 to 100 nM
CC[C@H](C)[C@@H]1NC(=O)[C@H](Cc2cccnc2)NC(=O)[C@H](Cc2ccc(O)cc2)NC(=O)[C@H](CC(N)=O)NC(=O)[C@H](Cc2c[nH]c3ccccc23)NC(=O)[C@H](C(C)C)NC(=O)[C@H](Cc2cccc(Cl)c2)N(C)C(=O)[C@H](C(C)C)NC(=O)[C@H](C)NC(=O)CSC[C@@H](C(=O)NCCOCCOCCOCCOCCC(N)=O)NC(=O)[C@H](Cc2ccc(O)cc2)N(C)C(=O)[C@H](Cc2ccncc2)NC(=O)[C@H](CCC(=O)NCCOCCOCCOCCOCCOCCOCCOCCOC)NC(=O)[C@H](CCCNC(=N)N)NC(=O)[C@H]([C@@H](C)CC)NC1=O [compound 94] ({CH2CO}-AV[NMePhe(3-Cl)]VWNY[3Pal]IIRE(NH(CH2CH2O)8Me)[4Pal][NMeY]C[PEG4]-NH2; thioether N-15) | 1 to 100 nM
CC[C@H](C)[C@@H]1NC(=O)[C@H](Cc2ccc(OCC(=O)O)cc2)NC(=O)[C@H](Cc2ccc(O)cc2)NC(=O)[C@H](CC(N)=O)NC(=O)[C@H](Cc2c[nH]c3ccccc23)NC(=O)[C@H](C(C)C)NC(=O)[C@H](Cc2cccc(Cl)c2)N(C)C(=O)[C@H](C(C)C)NC(=O)[C@H](C)NC(=O)CSC[C@@H](C(=O)NCCOCCOCCOCCOCCC(N)=O)NC(=O)[C@H](Cc2ccc(O)cc2)N(C)C(=O)[C@H](Cc2ccncc2)NC(=O)[C@H](CCC(=O)NCCOCCOCCOCCOCCOCCOCCOCCOC)NC(=O)[C@H](CCCNC(=N)N)NC(=O)[C@H]([C@@H](C)CC)NC1=O [compound 96] ({CH2CO}-AV[NMePhe(3-Cl)]VWNYY(Carboxymethyl)IIRE(NH(CH2CH2O)8Me)[4Pal][NMeY]C[PEG4]-NH2; thioether N-15) | 1 to 100 nM
CC[C@H](C)[C@@H]1NC(=O)[C@H](Cc2ccc(OCC(=O)O)cc2)NC(=O)[C@H](Cc2ccc(N)nc2)NC(=O)[C@H](CC(N)=O)NC(=O)[C@H](Cc2c[nH]c3ccccc23)NC(=O)[C@H](C(C)C)NC(=O)[C@H](Cc2cccc(Cl)c2)N(C)C(=O)[C@H](C(C)C)NC(=O)[C@H](C)NC(=O)CSC[C@@H](C(=O)NCCOCCOCCOCCOCCC(N)=O)NC(=O)[C@H](Cc2ccc(O)cc2)N(C)C(=O)[C@H](Cc2cccc(C(=O)O)c2)NC(=O)[C@H](CCC(=O)NCCOCCOCCOCCOCCOCCOCCOCCOC)NC(=O)[C@H](CCCNC(=N)N)NC(=O)[C@H]([C@@H](C)CC)NC1=O [compound 99] ({CH2CO}-AV[NMePhe(3-Cl)]VWN[3Pal(6-NH2)]Y(Carboxymethyl)IIRE(NH(CH2CH2O)8Me)[Phe(3-COOH)][NMeY]C[PEG4]-NH2; thioether N-15) | 1 to 100 nM

Results, then the compound that gave them:

Kd | SMILES
1 to 100 nM | CC[C@H](C)[C@@H]1NC(=O)[C@H](Cc2ccc(OCC(=O)O)cc2)NC(=O)[C@H](Cc2ccc(N)nc2)NC(=O)[C@H](CC(N)=O)NC(=O)[C@H](Cc2c[nH]c3ccccc23)NC(=O)[C@H](C(C)C)NC(=O)[C@H](Cc2cccc(Cl)c2)N(C)C(=O)[C@H](C(C)C)NC(=O)[C@H](C)NC(=O)CSC[C@@H](C(=O)NCCOCCOCCOCCOCCC(N)=O)NC(=O)[C@H](Cc2ccc(O)cc2)N(C)C(=O)[C@H](Cc2cccc(C(=O)O)c2)NC(=O)[C@H](CCCNC(=N)N)NC(=O)[C@H](CCCNC(=N)N)NC(=O)[C@H]([C@@H](C)CC)NC1=O [compound 91] ({CH2CO}-AV[NMePhe(3-Cl)]VWN[3Pal(6-NH2)]Y(Carboxymethyl)IIRR[Phe(3-COOH)][NMeY]C[PEG4]-NH2; thioether N-15)
1 to 100 nM | CC[C@H](C)[C@@H]1NC(=O)[C@H](Cc2cccnc2)NC(=O)[C@H](Cc2ccc(O)cc2)NC(=O)[C@H](CC(N)=O)NC(=O)[C@H](Cc2c[nH]c3ccccc23)NC(=O)[C@H](C(C)C)NC(=O)[C@H](Cc2cccc(Cl)c2)N(C)C(=O)[C@H](C(C)C)NC(=O)[C@H](C)NC(=O)CSC[C@@H](C(=O)NCCOCCOCCOCCOCCC(N)=O)NC(=O)[C@H](Cc2ccc(O)cc2)N(C)C(=O)[C@H](Cc2cccc(C(=O)O)c2)NC(=O)[C@H](CCC(=O)NCCOCCOCCOCCOCCOCCOCCOCCOC)NC(=O)[C@H](CCCNC(=N)N)NC(=O)[C@H]([C@@H](C)CC)NC1=O [compound 93] ({CH2CO}-AV[NMePhe(3-Cl)]VWNY[3Pal]IIRE(NH(CH2CH2O)8Me)[Phe(3-COOH)][NMeY]C[PEG4]-NH2; thioether N-15)
1 to 100 nM | CC[C@H](C)[C@@H]1NC(=O)[C@H](Cc2ccc(OCC(=O)O)cc2)NC(=O)[C@H](Cc2ccc(O)cc2)NC(=O)[C@H](CC(N)=O)NC(=O)[C@H](Cc2c[nH]c3ccccc23)NC(=O)[C@H](C(C)C)NC(=O)[C@H](Cc2cccc(Cl)c2)N(C)C(=O)[C@H](C(C)C)NC(=O)[C@H](C)NC(=O)CSC[C@@H](C(=O)NCCOCCOCCOCCOCCC(N)=O)NC(=O)[C@H](Cc2ccc(O)cc2)N(C)C(=O)[C@H](Cc2cccc(C(=O)O)c2)NC(=O)[C@H](CCC(=O)NCCOCCOCCOCCOCCOCCOCCOCCOC)NC(=O)[C@H](CCCNC(=N)N)NC(=O)[C@H]([C@@H](C)CC)NC1=O [compound 95] ({CH2CO}-AV[NMePhe(3-Cl)]VWNYY(Carboxymethyl)IIRE(NH(CH2CH2O)8Me)[Phe(3-COOH)][NMeY]C[PEG4]-NH2; thioether N-15)
1 to 100 nM | CC[C@H](C)[C@@H]1NC(=O)[C@H](Cc2cccnc2)NC(=O)[C@H](Cc2ccc(N)nc2)NC(=O)[C@H](CC(N)=O)NC(=O)[C@H](Cc2c[nH]c3ccccc23)NC(=O)[C@H](C(C)C)NC(=O)[C@H](Cc2cccc(Cl)c2)N(C)C(=O)[C@H](C(C)C)NC(=O)[C@H](C)NC(=O)CSC[C@@H](C(=O)NCCOCCOCCOCCOCCC(N)=O)NC(=O)[C@H](Cc2ccc(O)cc2)N(C)C(=O)[C@H](Cc2cccc(C(=O)O)c2)NC(=O)[C@H](CCC(=O)NCCOCCOCCOCCOCCOCCOCCOCCOC)NC(=O)[C@H](CCCNC(=N)N)NC(=O)[C@H]([C@@H](C)CC)NC1=O [compound 97] ({CH2CO}-AV[NMePhe(3-Cl)]VWN[3Pal(6-NH2)][3Pal]IIRE(NH(CH2CH2O)8Me)[Phe(3-COOH)][NMeY]C[PEG4]-NH2; thioether N-15)
1 to 100 nM | CC[C@H](C)[C@@H]1NC(=O)[C@H](Cc2cccnc2)NC(=O)[C@H](Cc2ccc(N)nc2)NC(=O)[C@H](CC(N)=O)NC(=O)[C@H](Cc2c[nH]c3ccccc23)NC(=O)[C@H](C(C)C)NC(=O)[C@H](Cc2cccc(Cl)c2)N(C)C(=O)[C@H](C(C)C)NC(=O)[C@H](C)NC(=O)CSC[C@@H](C(=O)NCCOCCOCCOCCOCCC(N)=O)NC(=O)[C@H](Cc2ccc(O)cc2)N(C)C(=O)[C@H](Cc2ccncc2)NC(=O)[C@H](CCC(=O)NCCOCCOCCOCCOCCOCCOCCOCCOC)NC(=O)[C@H](CCCNC(=N)N)NC(=O)[C@H]([C@@H](C)CC)NC1=O [compound 98] ({CH2CO}-AV[NMePhe(3-Cl)]VWN[3Pal(6-NH2)][3Pal]IIRE(NH(CH2CH2O)8Me)[4Pal][NMeY]C[PEG4]-NH2; thioether N-15)
1 to 100 nM | CC[C@H](C)[C@@H]1NC(=O)[C@H](Cc2ccc(OCC(=O)O)cc2)NC(=O)[C@H](Cc2ccc(N)nc2)NC(=O)[C@H](CC(N)=O)NC(=O)[C@H](Cc2c[nH]c3ccccc23)NC(=O)[C@H](C(C)C)NC(=O)[C@H](Cc2cccc(Cl)c2)N(C)C(=O)[C@H](C(C)C)NC(=O)[C@H](C)NC(=O)CSC[C@@H](C(=O)NCCOCCOCCOCCOCCC(N)=O)NC(=O)[C@H](Cc2ccc(O)cc2)N(C)C(=O)[C@H](Cc2ccncc2)NC(=O)[C@H](CCC(=O)NCCOCCOCCOCCOCCOCCOCCOCCOC)NC(=O)[C@H](CCCNC(=N)N)NC(=O)[C@H]([C@@H](C)CC)NC1=O [compound 100] ({CH2CO}-AV[NMePhe(3-Cl)]VWN[3Pal(6-NH2)]Y(Carboxymethyl)IIRE(NH(CH2CH2O)8Me)[4Pal][NMeY]C[PEG4]-NH2; thioether N-15)
1 to 100 nM | CC[C@H](C)[C@@H]1NC(=O)[C@H](Cc2ccc(OCC(=O)O)cc2)NC(=O)[C@H](Cc2ccc(O)cc2)NC(=O)[C@H](CC(N)=O)NC(=O)[C@H](Cc2cn(CC(=O)O)c3ccccc23)NC(=O)[C@H](C(C)C)NC(=O)[C@H](Cc2cccc(Cl)c2)N(C)C(=O)[C@H](C(C)C)NC(=O)[C@H](C)NC(=O)CSC[C@@H](C(=O)NCCOCCOCCOCCOCCC(N)=O)NC(=O)[C@H](Cc2ccc(O)cc2)N(C)C(=O)[C@H](Cc2ccccc2)NC(=O)[C@H](CCCNC(=N)N)NC(=O)[C@H](CCC(=O)NCCOCCOCCOCCOCCOCCOCCOCCOC)NC(=O)[C@H]([C@@H](C)CC)NC1=O [compound 101]
